According to the supplement of paper PMC10307832:

Key:
Test in all cases: relative viability (nuclei count vs DMSO), 5 days (fraction); higher = more cells survive
LCLC-103H = test system: LCLC-103H
Procedure, shortened: (§1)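 Medians of duplicate plates are given as relative viability. That measure is the nuclei count in treated wells divided by the count in vehicle wells. Counts were taken on 4× images of lung cancer cell lines in 1536-well plates, 5 days after pin-tool dosing the day after seeding with one drug alone or a fixed anchor-drug dose plus five library-drug doses (not always all listed) in √10 steps.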

NCI-H727 = test system: NCI-H727
Procedure, shortened: as §1

EKVX = test system: EKVX
Procedure, shortened: as §1

BEN = test system: BEN
Procedure, shortened: as §1

NCI-H2170 = test system: NCI-H2170
Procedure, shortened: as §1

HCC-827 = test system: HCC-827
Procedure, shortened: as §1

NCI-H1666 = test system: NCI-H1666
Procedure, shortened: as §1

LOU-NH91 = test system: LOU-NH91
Procedure, shortened: as §1

NCI-H1944 = test system: NCI-H1944
Procedure, shortened: as §1

NCI-H1355 = test system: NCI-H1355
Procedure, shortened: as §1

HOP-62 = test system: HOP-62
Procedure, shortened: as §1

NCI-H661 = test system: NCI-H661
Procedure, shortened: as §1

SK-MES-1 = test system: SK-MES-1
Procedure, shortened: as §1

LXF-289 = test system: LXF-289
Procedure, shortened: as §1

PC-14 = test system: PC-14
Procedure, shortened: as §1

NCI-H647 = test system: NCI-H647
Procedure, shortened: as §1

NCI-H1993 = test system: NCI-H1993
Procedure, shortened: as §1

NCI-H441 = test system: NCI-H441
Procedure, shortened: as §1

NCI-H2126 = test system: NCI-H2126
Procedure, shortened: as §1

LK-2 = test system: LK-2
Procedure, shortened: as §1

RERF-LC-KJ = test system: RERF-LC-KJ
Procedure, shortened: as §1

NCI-H1437 = test system: NCI-H1437
Procedure, shortened: as §1

## CCNC(=O)c1noc(-c2cc(C(C)C)c(O)cc2O)c1-c1ccc(CN2CCOCC2)cc1 [Luminespib] + Cc1nc(NC(=O)N2CCC[C@H]2C(N)=O)sc1-c1ccnc(C(C)(C)C(F)(F)F)c1 [Alpelisib] (partner 2 µM)
LCLC-103H; first compound 0.002 µM
  relative viability: 0.969
LCLC-103H; first compound 0.006325 µM
  relative viability: 1.01
LCLC-103H; first compound 0.02 µM
  relative viability: 0.85
LCLC-103H; first compound 0.06325 µM
  relative viability: 0.928
LCLC-103H; first compound 0.2 µM
  relative viability: 1
NCI-H727; first compound 0.002 µM
  relative viability: 0.553
NCI-H727; first compound 0.006325 µM
  relative viability: 0.584
NCI-H727; first compound 0.02 µM
  relative viability: 0.504
NCI-H727; first compound 0.06325 µM
  relative viability: 0.234
NCI-H727; first compound 0.2 µM
  relative viability: 0.228
EKVX; first compound 0.002 µM
  relative viability: 0.972
EKVX; first compound 0.006325 µM
  relative viability: 0.928
EKVX; first compound 0.02 µM
  relative viability: 0.514
EKVX; first compound 0.06325 µM
  relative viability: 1.07
EKVX; first compound 0.2 µM
  relative viability: 0.315
BEN; first compound 0.002 µM
  relative viability: 1.1
BEN; first compound 0.006325 µM
  relative viability: 0.964
BEN; first compound 0.02 µM
  relative viability: 0.393
BEN; first compound 0.06325 µM
  relative viability: 0.709
BEN; first compound 0.2 µM
  relative viability: 0.224
NCI-H2170; first compound 0.002 µM
  relative viability: 0.763
NCI-H2170; first compound 0.006325 µM
  relative viability: 0.79
NCI-H2170; first compound 0.02 µM
  relative viability: 0.526
NCI-H2170; first compound 0.06325 µM
  relative viability: 0.504
NCI-H2170; first compound 0.2 µM
  relative viability: 0.172
HCC-827; first compound 0.002 µM
  relative viability: 1
HCC-827; first compound 0.006325 µM
  relative viability: 0.981
HCC-827; first compound 0.02 µM
  relative viability: 0.849
HCC-827; first compound 0.06325 µM
  relative viability: 0.976
HCC-827; first compound 0.2 µM
  relative viability: 0.931
NCI-H1666; first compound 0.002 µM
  relative viability: 1
NCI-H1666; first compound 0.006325 µM
  relative viability: 1.01
NCI-H1666; first compound 0.02 µM
  relative viability: 0.985
NCI-H1666; first compound 0.06325 µM
  relative viability: 1.01
NCI-H1666; first compound 0.2 µM
  relative viability: 0.795
LOU-NH91; first compound 0.002 µM
  relative viability: 0.717
LOU-NH91; first compound 0.006325 µM
  relative viability: 0.646
LOU-NH91; first compound 0.02 µM
  relative viability: 0.543
LOU-NH91; first compound 0.06325 µM
  relative viability: 0.43
LOU-NH91; first compound 0.2 µM
  relative viability: 0.381
NCI-H1944; first compound 0.002 µM
  relative viability: 0.861
NCI-H1944; first compound 0.006325 µM
  relative viability: 0.826
NCI-H1944; first compound 0.02 µM
  relative viability: 0.539
NCI-H1944; first compound 0.06325 µM
  relative viability: 0.755
NCI-H1944; first compound 0.2 µM
  relative viability: 0.781
NCI-H1355; first compound 0.002 µM
  relative viability: 0.915
NCI-H1355; first compound 0.006325 µM
  relative viability: 0.913
NCI-H1355; first compound 0.02 µM
  relative viability: 0.403
NCI-H1355; first compound 0.06325 µM
  relative viability: 0.903
NCI-H1355; first compound 0.2 µM
  relative viability: 0.594
HOP-62; first compound 0.002 µM
  relative viability: 1.17
HOP-62; first compound 0.006325 µM
  relative viability: 0.79
HOP-62; first compound 0.02 µM
  relative viability: 0.603
HOP-62; first compound 0.06325 µM
  relative viability: 0.788
HOP-62; first compound 0.2 µM
  relative viability: 0.927
NCI-H661; first compound 0.002 µM
  relative viability: 0.628
NCI-H661; first compound 0.006325 µM
  relative viability: 0.608
NCI-H661; first compound 0.02 µM
  relative viability: 0.48
NCI-H661; first compound 0.06325 µM
  relative viability: 0.322
NCI-H661; first compound 0.2 µM
  relative viability: 0.184
SK-MES-1; first compound 0.002 µM
  relative viability: 0.82
SK-MES-1; first compound 0.006325 µM
  relative viability: 0.858
SK-MES-1; first compound 0.02 µM
  relative viability: 0.593
SK-MES-1; first compound 0.06325 µM
  relative viability: 0.306
SK-MES-1; first compound 0.2 µM
  relative viability: 0.133
LXF-289; first compound 0.002 µM
  relative viability: 1.03
LXF-289; first compound 0.006325 µM
  relative viability: 0.97
LXF-289; first compound 0.02 µM
  relative viability: 1.09
LXF-289; first compound 0.06325 µM
  relative viability: 0.52
LXF-289; first compound 0.2 µM
  relative viability: 0.161
PC-14; first compound 0.002 µM
  relative viability: 0.942
PC-14; first compound 0.006325 µM
  relative viability: 0.882
PC-14; first compound 0.02 µM
  relative viability: 0.893
PC-14; first compound 0.06325 µM
  relative viability: 0.091
PC-14; first compound 0.2 µM
  relative viability: 0.0816
NCI-H647; first compound 0.002 µM
  relative viability: 1.25
NCI-H647; first compound 0.006325 µM
  relative viability: 1.12
NCI-H647; first compound 0.02 µM
  relative viability: 1.03
NCI-H647; first compound 0.06325 µM
  relative viability: 0.103
NCI-H647; first compound 0.2 µM
  relative viability: 0.0917
NCI-H1993; first compound 0.002 µM
  relative viability: 0.676
NCI-H1993; first compound 0.006325 µM
  relative viability: 0.74
NCI-H1993; first compound 0.02 µM
  relative viability: 0.588
NCI-H1993; first compound 0.06325 µM
  relative viability: 0.606
NCI-H1993; first compound 0.2 µM
  relative viability: 0.548
NCI-H441; first compound 0.002 µM
  relative viability: 0.619
NCI-H441; first compound 0.006325 µM
  relative viability: 0.825
NCI-H441; first compound 0.02 µM
  relative viability: 0.739
NCI-H441; first compound 0.06325 µM
  relative viability: 0.126
NCI-H441; first compound 0.2 µM
  relative viability: 0.148
NCI-H2126; first compound 0.002 µM
  relative viability: 0.739
NCI-H2126; first compound 0.006325 µM
  relative viability: 0.727
NCI-H2126; first compound 0.02 µM
  relative viability: 0.538
NCI-H2126; first compound 0.06325 µM
  relative viability: 0.748
NCI-H2126; first compound 0.2 µM
  relative viability: 0.838
LK-2; first compound 0.002 µM
  relative viability: 1.26
LK-2; first compound 0.006325 µM
  relative viability: 1.31
LK-2; first compound 0.02 µM
  relative viability: 0.691
LK-2; first compound 0.06325 µM
  relative viability: 0.71
LK-2; first compound 0.2 µM
  relative viability: 0.259
RERF-LC-KJ; first compound 0.002 µM
  relative viability: 0.813
RERF-LC-KJ; first compound 0.006325 µM
  relative viability: 0.894
RERF-LC-KJ; first compound 0.02 µM
  relative viability: 0.51
RERF-LC-KJ; first compound 0.06325 µM
  relative viability: 0.541
RERF-LC-KJ; first compound 0.2 µM
  relative viability: 0.242
NCI-H1437; first compound 0.002 µM
  relative viability: 0.878
NCI-H1437; first compound 0.006325 µM
  relative viability: 0.919
NCI-H1437; first compound 0.02 µM
  relative viability: 1.16
NCI-H1437; first compound 0.06325 µM
  relative viability: 0.294
NCI-H1437; first compound 0.2 µM
  relative viability: 0.107
